# Key:
# Assay in all cases: In vitro antibacterial evaluation: minimum inhibitory concentration (MIC), broth dilution method
# Assay type in all cases: cell-based
# Escherichia coli = conditions: broth dilution, 18 hours at 35° C.
# Enterococcus sp. = conditions: broth dilution, 18 hours at 35° C.
# Method in brief: (§1)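 First, organisms are seeded at 5×10^5 CFU/mL into Muller-Hinton II […]. Next, antibiotic is applied across 64-0.06 μg/mL by broth dilution (NCCLS M7-A2). Finally, the lowest inhibitory concentration is recorded as MIC.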
# Staphylococcus sp. = conditions: broth dilution, 18 hours at 35° C.; for MIC Staphylococcus aureus-SMITH (GC 4543): strain SMITH GC 4543
# Method in brief: as §1
# Streptococcus sp. = conditions: broth dilution, 18 hours at 35° C.
# Method in brief: as §1
# [1] = Enterococcus faecalis (ATCC 29212)
# [2] = Enterococcus faecalis (GC 2242)
# [3] = Enterococcus faecalis (GC 2691)
# [4] = Enterococcus faecalis (GC 3059)
# [5] = Enterococcus faecalis (GC 4552)
# [6] = Enterococcus faecalis (GC 4553)
# [7] = Enterococcus faecalis (GC 4554)
# [8] = Enterococcus faecalis (GC 6189)
# [9] = Streptococcus agalactiae (GC 4564)
# [10] = Streptococcus pneumoniae (ATCC 6301)
# [11] = Streptococcus pneumoniae (GC 1894)
# [12] = Streptococcus pneumoniae (GC 4565)
# [13] = Streptococcus pyogenes (GC 4563)
smiles,measurement,setting,value
COc1ccc(Oc2cccc(-c3nc4cc(CC5NC(=O)C(C(C)c6ccccc6)NC(=O)CNC(=O)C(CO)NC(=O)C(C(O)C6CNC(=N)N6C6OC(CO)C(O)C(O)C6O)NC(=O)C(C(O)C6CNC(=N)N6)NC5=O)ccc4o3)c2)cc1 (centres unmarked) [Example 35],MIC Escherichia coli (GC 4560),Escherichia coli,16 µg/mL
same,MIC Enterococcus avium (GC 4558),Enterococcus sp.; Enterococcus avium (GC 4558),8 µg/mL
same,MIC Enterococcus faecalis (ATCC 29212),Enterococcus sp.; [1],16 µg/mL
same,MIC Enterococcus faecalis (GC 2242),Enterococcus sp.; [2],16 µg/mL
same,MIC Enterococcus faecalis (GC 2691),Enterococcus sp.; [3],16 µg/mL
same,MIC Enterococcus faecalis (GC 3059),Enterococcus sp.; [4],32 µg/mL
same,MIC Enterococcus faecalis (GC 4552),Enterococcus sp.; [5],32 µg/mL
same,MIC Enterococcus faecalis (GC 4553),Enterococcus sp.; [6],8 µg/mL
same,MIC Enterococcus faecalis (GC 4554),Enterococcus sp.; [7],32 µg/mL
same,MIC Enterococcus faecalis (GC 6189),Enterococcus sp.; [8],16 µg/mL
same,MIC Enterococcus faecium (GC 2243),Enterococcus sp.; Enterococcus faecium (GC 2243),8 µg/mL
same,MIC Enterococcus faecium (GC 4556),Enterococcus sp.; Enterococcus faecium (GC 4556),32 µg/mL
same,MIC Enterococcus faecium (GC 4557),Enterococcus sp.; Enterococcus faecium (GC 4557),4 µg/mL
same,MIC Enterococcus avium (GC 4558),Enterococcus sp.,8 µg/mL
same,MIC Enterococcus faecalis (ATCC 29212),Enterococcus sp.,16 µg/mL
same,MIC Enterococcus faecalis (GC 2242),Enterococcus sp.,16 µg/mL
same,MIC Enterococcus faecalis (GC 2691),Enterococcus sp.,16 µg/mL
same,MIC Enterococcus faecalis (GC 3059),Enterococcus sp.,32 µg/mL
same,MIC Enterococcus faecalis (GC 4552),Enterococcus sp.,32 µg/mL
same,MIC Enterococcus faecalis (GC 4553),Enterococcus sp.,8 µg/mL
same,MIC Enterococcus faecalis (GC 4554),Enterococcus sp.,32 µg/mL
same,MIC Enterococcus faecalis (GC 6189),Enterococcus sp.,16 µg/mL
same,MIC Enterococcus faecium (GC 2243),Enterococcus sp.,8 µg/mL
same,MIC Enterococcus faecium (GC 4556),Enterococcus sp.,32 µg/mL
same,MIC Enterococcus faecium (GC 4557),Enterococcus sp.,4 µg/mL
same,MIC Coagulase Negative Staphylococcus (GC 4547),Staphylococcus sp.,8 µg/mL
same,MIC Coagulase Negative Staphylococcus (GC 4548),Staphylococcus sp.,8 µg/mL
same,MIC Coagulase Negative Staphylococcus (GC 4549),Staphylococcus sp.,8 µg/mL
same,MIC Coagulase Negative Staphylococcus (GC 4551),Staphylococcus sp.,8 µg/mL
same,MIC Coagulase Negative Staphylococcus (GC 6257),Staphylococcus sp.,2 µg/mL
same,MIC Staphylococcus aureus SMITH (GC 4543),Staphylococcus sp.,8 µg/mL
same,MIC Staphylococcus haemolyticus (GC 4546),Staphylococcus sp.,8 µg/mL
same,MIC Staphylococcus aureus-SMITH (GC 4543),Staphylococcus sp.,8 µg/mL
same,MIC Streptococcus agalactiae (GC 4564),Streptococcus sp.; [9],8 µg/mL
same,MIC Streptococcus pneumoniae (ATCC 6301),Streptococcus sp.; [10],8 µg/mL
same,MIC Streptococcus pneumoniae (GC 1894),Streptococcus sp.; [11],8 µg/mL
same,MIC Streptococcus pneumoniae (GC 4565),Streptococcus sp.; [12],16 µg/mL
same,MIC Streptococcus pyogenes (GC 4563),Streptococcus sp.; [13],2 µg/mL
same,MIC Streptococcus agalactiae (GC 4564),Streptococcus sp.,8 µg/mL
same,MIC Streptococcus pneumoniae (ATCC 6301),Streptococcus sp.,8 µg/mL
same,MIC Streptococcus pneumoniae (GC 1894),Streptococcus sp.,8 µg/mL
same,MIC Streptococcus pneumoniae (GC 4565),Streptococcus sp.,16 µg/mL
same,MIC Streptococcus pyogenes (GC 4563),Streptococcus sp.,2 µg/mL
"CC(c1ccccc1)C1NC(=O)CNC(=O)C(CO)NC(=O)C(C(O)C2CNC(=N)N2C2OC(CO)C(O)C(O)C2O)NC(=O)C(C(O)C2CNC(=N)N2)NC(=O)C(Cc2ccc3oc(-c4ccoc4)nc3c2)NC1=O (stereo not drawn) [Example 38, Cyclo[3-[2-(3-furyl)-1,3-benzoxazol-5-yl]alanyl-3-(2-iminoimidazolidin-4-yl)seryl-3-(3-hexopyranosyl-2-iminoimidazolidin-4-yl)serylserylglycyl-β-methylphenylalanyl]]",MIC Escherichia coli (ATCC 25922),Escherichia coli,64 µg/mL
same,MIC Escherichia coli (GC 4559),Escherichia coli,64 µg/mL
same,MIC Escherichia coli (GC 4560),Escherichia coli,32 µg/mL
same,MIC Enterococcus avium (GC 4558),Enterococcus sp.; Enterococcus avium (GC 4558),64 µg/mL
same,MIC Enterococcus faecalis (GC 4553),Enterococcus sp.; [6],64 µg/mL
same,MIC Enterococcus faecium (GC 4557),Enterococcus sp.; Enterococcus faecium (GC 4557),32 µg/mL
same,MIC Enterococcus avium (GC 4558),Enterococcus sp.,64 µg/mL
same,MIC Enterococcus faecalis (GC 4553),Enterococcus sp.,64 µg/mL
same,MIC Enterococcus faecium (GC 4557),Enterococcus sp.,32 µg/mL
same,MIC Coagulase Negative Staphylococcus (GC 4547),Staphylococcus sp.,32 µg/mL
same,MIC Coagulase Negative Staphylococcus (GC 4548),Staphylococcus sp.,32 µg/mL
same,MIC Coagulase Negative Staphylococcus (GC 4549),Staphylococcus sp.,64 µg/mL
same,MIC Coagulase Negative Staphylococcus (GC 4551),Staphylococcus sp.,64 µg/mL
same,MIC Coagulase Negative Staphylococcus (GC 6257),Staphylococcus sp.,16 µg/mL
same,MIC Staphylococcus aureus SMITH (GC 4543),Staphylococcus sp.,64 µg/mL
same,MIC Staphylococcus haemolyticus (GC 4546),Staphylococcus sp.,16 µg/mL
same,MIC Staphylococcus aureus-SMITH (GC 4543),Staphylococcus sp.,64 µg/mL
same,MIC Streptococcus agalactiae (GC 4564),Streptococcus sp.; [9],32 µg/mL
same,MIC Streptococcus pneumoniae (ATCC 6301),Streptococcus sp.; [10],32 µg/mL
same,MIC Streptococcus pneumoniae (GC 1894),Streptococcus sp.; [11],32 µg/mL
same,MIC Streptococcus pneumoniae (GC 4565),Streptococcus sp.; [12],64 µg/mL
same,MIC Streptococcus pyogenes (GC 4563),Streptococcus sp.; [13],32 µg/mL
same,MIC Streptococcus agalactiae (GC 4564),Streptococcus sp.,32 µg/mL
same,MIC Streptococcus pneumoniae (ATCC 6301),Streptococcus sp.,32 µg/mL
same,MIC Streptococcus pneumoniae (GC 1894),Streptococcus sp.,32 µg/mL
same,MIC Streptococcus pneumoniae (GC 4565),Streptococcus sp.,64 µg/mL
same,MIC Streptococcus pyogenes (GC 4563),Streptococcus sp.,32 µg/mL
"CC(c1ccccc1)C1NC(=O)CNC(=O)C(CO)NC(=O)C(C(O)C2CNC(=N)N2C2OC(CO)C(O)C(O)C2O)NC(=O)C(C(O)C2CNC(=N)N2)NC(=O)C(Cc2ccc3oc(C=C(c4ccccc4)c4ccccc4)nc3c2)NC1=O (stereo not drawn) [Example 39, Cyclo[3-[2-(2,2-diphenylethenyl)-1,3-benzoxazol-5-yl]alanyl-3-(2-iminoimidazolidin-4-yl)seryl-3-(3-hexopyranosyl-2-iminoimidazolidin-4-yl)serylserylglycyl-β-methylphenylalanyl]]",MIC Escherichia coli (GC 4560),Escherichia coli,16 µg/mL
same,MIC Enterococcus avium (GC 4558),Enterococcus sp.; Enterococcus avium (GC 4558),8 µg/mL
same,MIC Enterococcus faecalis (ATCC 29212),Enterococcus sp.; [1],16 µg/mL
same,MIC Enterococcus faecalis (GC 2242),Enterococcus sp.; [2],16 µg/mL
same,MIC Enterococcus faecalis (GC 2691),Enterococcus sp.; [3],16 µg/mL
same,MIC Enterococcus faecalis (GC 3059),Enterococcus sp.; [4],16 µg/mL
same,MIC Enterococcus faecalis (GC 4552),Enterococcus sp.; [5],16 µg/mL
same,MIC Enterococcus faecalis (GC 4553),Enterococcus sp.; [6],8 µg/mL
same,MIC Enterococcus faecalis (GC 4554),Enterococcus sp.; [7],32 µg/mL
same,MIC Enterococcus faecalis (GC 6189),Enterococcus sp.; [8],16 µg/mL
same,MIC Enterococcus faecium (GC 2243),Enterococcus sp.; Enterococcus faecium (GC 2243),8 µg/mL
same,MIC Enterococcus faecium (GC 4556),Enterococcus sp.; Enterococcus faecium (GC 4556),32 µg/mL
same,MIC Enterococcus faecium (GC 4557),Enterococcus sp.; Enterococcus faecium (GC 4557),8 µg/mL
same,MIC Enterococcus avium (GC 4558),Enterococcus sp.,8 µg/mL
same,MIC Enterococcus faecalis (ATCC 29212),Enterococcus sp.,16 µg/mL
same,MIC Enterococcus faecalis (GC 2242),Enterococcus sp.,16 µg/mL
same,MIC Enterococcus faecalis (GC 2691),Enterococcus sp.,16 µg/mL
same,MIC Enterococcus faecalis (GC 3059),Enterococcus sp.,16 µg/mL
same,MIC Enterococcus faecalis (GC 4552),Enterococcus sp.,16 µg/mL
same,MIC Enterococcus faecalis (GC 4553),Enterococcus sp.,8 µg/mL
same,MIC Enterococcus faecalis (GC 4554),Enterococcus sp.,32 µg/mL
same,MIC Enterococcus faecalis (GC 6189),Enterococcus sp.,16 µg/mL
same,MIC Enterococcus faecium (GC 2243),Enterococcus sp.,8 µg/mL
same,MIC Enterococcus faecium (GC 4556),Enterococcus sp.,32 µg/mL
same,MIC Enterococcus faecium (GC 4557),Enterococcus sp.,8 µg/mL
same,MIC Coagulase Negative Staphylococcus (GC 4547),Staphylococcus sp.,8 µg/mL
same,MIC Coagulase Negative Staphylococcus (GC 4548),Staphylococcus sp.,8 µg/mL
same,MIC Coagulase Negative Staphylococcus (GC 4549),Staphylococcus sp.,4 µg/mL
same,MIC Coagulase Negative Staphylococcus (GC 4551),Staphylococcus sp.,8 µg/mL
same,MIC Coagulase Negative Staphylococcus (GC 6257),Staphylococcus sp.,4 µg/mL
same,MIC Staphylococcus aureus SMITH (GC 4543),Staphylococcus sp.,16 µg/mL
same,MIC Staphylococcus haemolyticus (GC 4546),Staphylococcus sp.,8 µg/mL
same,MIC Staphylococcus aureus-SMITH (GC 4543),Staphylococcus sp.,16 µg/mL
same,MIC Streptococcus agalactiae (GC 4564),Streptococcus sp.; [9],16 µg/mL
same,MIC Streptococcus pneumoniae (ATCC 6301),Streptococcus sp.; [10],8 µg/mL
same,MIC Streptococcus pneumoniae (GC 1894),Streptococcus sp.; [11],8 µg/mL
same,MIC Streptococcus pneumoniae (GC 4565),Streptococcus sp.; [12],16 µg/mL
same,MIC Streptococcus pyogenes (GC 4563),Streptococcus sp.; [13],4 µg/mL
same,MIC Streptococcus agalactiae (GC 4564),Streptococcus sp.,16 µg/mL
same,MIC Streptococcus pneumoniae (ATCC 6301),Streptococcus sp.,8 µg/mL
same,MIC Streptococcus pneumoniae (GC 1894),Streptococcus sp.,8 µg/mL
same,MIC Streptococcus pneumoniae (GC 4565),Streptococcus sp.,16 µg/mL
same,MIC Streptococcus pyogenes (GC 4563),Streptococcus sp.,4 µg/mL

# Source: patent US8247211B2, “Glycopeptide antibiotics” (American Cyanamid Company, priority 2001, dated 2012)
